{"source": "patent US5679695A", "about": "“Aryl and heteroaryl compounds having anti-retrovirus activity” (The University of Connecticut, priority 1995, dated 1997)", "type_in_all_cases": "cell-based", "key": {"HIV-1": {"tested_on": "HIV-1", "test": "microbe, parasite or virus in culture", "conditions": "for viability at 17.9 µM: 1.79 × 10^-5 Molar", "procedure": "(§1) Another assay for testing the efficacy of the compounds is the procedure* used in the National Cancer Institute's test for agents active against Human Immunodeficiency Virus (HIV). It is designed to detect agents acting at any stage of the virus reproductive cycle. The assay basically involves the killing of T4 lymphocytes by HIV. Small amounts of HIV are added to cells, and a complete cycle of virus reproduction is necessary to obtain the required cell killing. Agents that interact with virions, cells, or virus gene-products to interfere with viral activities will protect cells from cytolysis. The system is automated in several features to accommodate large numbers of candidate agents and is generally designed to detect anti-HIV activity. However, compounds that degenerate, or are rapidly metabolized in the culture conditions may not show activity in this screen. All tests are compared with at least one positive (e.g., AZT-treated) control done at the same time under identical conditions.\n(§2) * Weislow. O. W., Kiser, R., Fine, D., Bader, J., Shoemaker, R. H., Boyd, M. R.: New soluble-formazan assay for HIV-1 cytopathic effects: application to high-flux screening of synthetic and natural products for AIDS-antiviral activity. J. Natl. Cancer Inst. 81:577-586, 1989.\n(§3) 1. The Candidate agent is dissolved in dimethyl sulfoxide (unless otherwise instructed) then diluted 1:100 in cell culture medium before preparing serial half-log10 dilutions. T4 lymphocytes (CEM cell line) are added and after a brief interval HIV-1 added, resulting in a 1:200 final dilution of the compound. Uninfected cells with the compound serve as a toxicity control, and infected and uninfected cells without compound serve as basic controls.\n(§4) 2. Cultures are incubated at 37° in a 5% carbon dioxide atmosphere for 6 days.\n(§5) 3. The tetrazolium salt, XTT, is added to all wells, and cultures are incubated to allow formazan color development by viable cells.\n(§6) 4. Individual wells are analyzed spectrophotometrically to quantitate formazan production, and in addition are viewed microscopically for detection of viable cells and confirmation of protective activity.\n(§7) 5. Drug-treated virus-infected cells are compared with drug-treated noninfected cells and with other appropriate controls (untreated infected and untreated noninfected: cells, drug-containing wells without cells, etc.) on the same plate.\n(§8) 6. Data are reviewed in comparison with other tests done at the same time and a determination about activity is made."}, "[1]": {"test": "XTT toxicity control, uninfected culture, CEM-V", "conditions": "human, cem-v cells, read-out: Uninfected culture response", "procedure": "as §1, §2, §3, §4, §5, §6, §7, §8"}, "CEM-V": {"tested_on": "CEM-V", "test": "XTT toxicity control, uninfected culture, CEM-V", "procedure": "as §1, §2, §3, §4, §5, §6, §7, §8"}}, "note": "Values joined by “and” are separate entries in the source; they are usually repeats but may differ in a detail not shown here. Equal entries are not always repeated. Where two headings read alike, the source gives them in different places.", "data": [{"smiles": "O=[N+]([O-])c1ccccc1S(=O)(=O)c1ccccc1", "note": "[Compound 1, 1-Nitro-2-(phenylsulfonyl)benzene]", "values": [{"measurement": "Conclusion", "setting": "HIV-1; CEM-V", "value": "ACTIVE"}, {"measurement": "Infected culture response", "setting": "HIV-1; CEM-V, 1.79 × 10^-6 Molar, 1.79 µM", "value": 9.3, "unit": "%"}, {"measurement": "Infected culture response", "setting": "HIV-1; CEM-V, 1.79 × 10^-7 Molar, 0.179 µM", "value": 8.7, "unit": "%"}, {"measurement": "Infected culture response", "setting": "HIV-1; CEM-V, 1.89 × 10^-4 Molar, 189 µM", "value": 87.3, "unit": "%"}, {"measurement": "Infected culture response", "setting": "HIV-1; CEM-V, 1.89 × 10^-5 Molar, 18.9 µM", "value": 110.5, "unit": "%"}, {"measurement": "Infected culture response", "setting": "HIV-1; CEM-V, 1.89 × 10^-6 Molar, 1.89 µM", "value": 11.4, "unit": "%"}, {"measurement": "Infected culture response", "setting": "HIV-1; CEM-V, 1.90 × 10^-7 Molar, 0.19 µM", "value": 12.1, "unit": "%"}, {"measurement": "Infected culture response", "setting": "HIV-1; CEM-V, 5.66 × 10^-6 Molar, 5.66 µM", "value": 36.6, "unit": "%"}, {"measurement": "Infected culture response", "setting": "HIV-1; CEM-V, 5.67 × 10^-7 Molar, 0.567 µM", "value": 8.3, "unit": "%"}, {"measurement": "Infected culture response", "setting": "HIV-1; CEM-V, 5.68 × 10^-8 Molar, 0.0568 µM", "value": 9.4, "unit": "%"}, {"measurement": "Infected culture response", "setting": "HIV-1; CEM-V, 5.98 × 10^-5 Molar, 59.8 µM", "value": 95.2, "unit": "%"}, {"measurement": "Infected culture response", "setting": "HIV-1; CEM-V, 5.99 × 10^-6 Molar, 5.99 µM", "value": "65.3% and 90.9%"}, {"measurement": "Infected culture response", "setting": "HIV-1; CEM-V, 6.00 × 10^-7 Molar, 0.6 µM", "value": 8.3, "unit": "%"}, {"measurement": "Infected culture response", "setting": "HIV-1; CEM-V, 6.01 × 10^-8 Molar, 0.0601 µM", "value": 8.7, "unit": "%"}, {"measurement": "Conclusion", "setting": "HIV-1; CEM-Z", "value": "ACTIVE"}, {"measurement": "Infected culture response", "setting": "HIV-1; CEM-Z, 1.79 × 10^-6 Molar, 1.79 µM", "value": "47.1% and 26.4%"}, {"measurement": "Infected culture response", "setting": "HIV-1; CEM-Z, 5.65 × 10^-5 Molar, 56.5 µM", "value": 93.1, "unit": "%"}, {"measurement": "Infected culture response", "setting": "HIV-1; CEM-Z, 5.66 × 10^-6 Molar, 5.66 µM", "value": 58.3, "unit": "%"}, {"measurement": "viability at 17.9 µM", "setting": "HIV-1; Human immunodeficiency virus 1, CEM-V, read-out: Infected culture response", "value": 92.2, "unit": "%"}, {"measurement": "viability at 1.79 µM", "setting": "HIV-1; Human immunodeficiency virus 1, CEM-V, 1.79 × 10^-6 Molar, read-out: Infected culture response", "value": 8, "unit": "%"}, {"measurement": "viability at 0.179 µM", "setting": "HIV-1; Human immunodeficiency virus 1, CEM-V, 1.79 × 10^-7 Molar, read-out: Infected culture response", "value": 10.3, "unit": "%"}, {"measurement": "viability at 189 µM", "setting": "HIV-1; Human immunodeficiency virus 1, CEM-V, 1.89 × 10^-4 Molar, read-out: Infected culture response", "value": 86, "unit": "%"}, {"measurement": "viability at 18.9 µM", "setting": "HIV-1; Human immunodeficiency virus 1, CEM-V, 1.89 × 10^-5 Molar, read-out: Infected culture response", "value": 100, "unit": "%"}, {"measurement": "viability at 1.89 µM", "setting": "HIV-1; Human immunodeficiency virus 1, CEM-V, 1.89 × 10^-6 Molar, read-out: Infected culture response", "value": 18.2, "unit": "%"}, {"measurement": "viability at 0.19 µM", "setting": "HIV-1; Human immunodeficiency virus 1, CEM-V, 1.90 × 10^-7 Molar, read-out: Infected culture response", "value": 14, "unit": "%"}, {"measurement": "viability at 5.66 µM", "setting": "HIV-1; Human immunodeficiency virus 1, CEM-V, 5.66 × 10^-6 Molar, read-out: Infected culture response", "value": 31.1, "unit": "%"}, {"measurement": "viability at 0.567 µM", "setting": "HIV-1; Human immunodeficiency virus 1, CEM-V, 5.67 × 10^-7 Molar, read-out: Infected culture response", "value": 10.6, "unit": "%"}, {"measurement": "viability at 0.0568 µM", "setting": "HIV-1; Human immunodeficiency virus 1, CEM-V, 5.68 × 10^-8 Molar, read-out: Infected culture response", "value": 10.1, "unit": "%"}, {"measurement": "viability at 59.8 µM", "setting": "HIV-1; Human immunodeficiency virus 1, CEM-V, 5.98 × 10^-5 Molar, read-out: Infected culture response", "value": 79.7, "unit": "%"}, {"measurement": "viability at 0.6 µM", "setting": "HIV-1; Human immunodeficiency virus 1, CEM-V, 6.00 × 10^-7 Molar, read-out: Infected culture response", "value": 15.5, "unit": "%"}, {"measurement": "viability at 0.0601 µM", "setting": "HIV-1; Human immunodeficiency virus 1, CEM-V, 6.01 × 10^-8 Molar, read-out: Infected culture response", "value": 14.7, "unit": "%"}, {"measurement": "viability at 1.79 µM", "setting": "HIV-1; Human immunodeficiency virus 1, CEM-V, dose printed 1.79 × 10^-6 Molar in the line between 5.66 × 10^-6 and 5.65 × 10^-5, read-out: Infected culture response", "value": 53.1, "unit": "%"}, {"measurement": "viability at 17.9 µM", "setting": "HIV-1; Human immunodeficiency virus 1, CEM-Z, read-out: Infected culture response", "value": 85.7, "unit": "%"}, {"measurement": "viability at 56.5 µM", "setting": "HIV-1; Human immunodeficiency virus 1, CEM-Z, 5.65 × 10^-5 Molar, read-out: Infected culture response", "value": 92.3, "unit": "%"}, {"measurement": "viability at 5.66 µM", "setting": "HIV-1; Human immunodeficiency virus 1, CEM-Z, 5.66 × 10^-6 Molar, read-out: Infected culture response", "value": 74.5, "unit": "%"}, {"measurement": "viability at 1.79 µM", "setting": "HIV-1; Human immunodeficiency virus 1, CEM-Z, dose printed 1.79 × 10^-6 Molar in the line between 5.66 × 10^-6 and 5.65 × 10^-5, read-out: Infected culture response", "value": 91.3, "unit": "%"}, {"measurement": "viability at 0.179 µM", "setting": "[1]; 1.79 × 10^-7 Molar", "value": 123, "unit": "%"}, {"measurement": "viability at 189 µM", "setting": "[1]; 1.89 × 10^-4 Molar", "value": 86.7, "unit": "%"}, {"measurement": "viability at 18.9 µM", "setting": "[1]; 1.89 × 10^-5 Molar", "value": 99.9, "unit": "%"}, {"measurement": "viability at 1.89 µM", "setting": "[1]; 1.89 × 10^-6 Molar", "value": 97.9, "unit": "%"}, {"measurement": "viability at 0.19 µM", "setting": "[1]; 1.90 × 10^-7 Molar", "value": 96.9, "unit": "%"}, {"measurement": "viability at 59.8 µM", "setting": "[1]; 5.98 × 10^-5 Molar", "value": 105, "unit": "%"}, {"measurement": "viability at 5.99 µM", "setting": "[1]; 5.99 × 10^-6 Molar", "value": 111, "unit": "%"}, {"measurement": "viability at 0.6 µM", "setting": "[1]; 6.00 × 10^-7 Molar", "value": 90.4, "unit": "%"}, {"measurement": "viability at 0.0601 µM", "setting": "[1]; 6.01 × 10^-8 Molar", "value": 105, "unit": "%"}, {"measurement": "Uninfected culture response", "setting": "CEM-V; 1.79 × 10^-7 Molar, 0.179 µM", "value": 106.5, "unit": "%"}, {"measurement": "Uninfected culture response", "setting": "CEM-V; 1.89 × 10^-4 Molar, 189 µM", "value": 89.8, "unit": "%"}, {"measurement": "Uninfected culture response", "setting": "CEM-V; 1.89 × 10^-5 Molar, 18.9 µM", "value": 100.7, "unit": "%"}, {"measurement": "Uninfected culture response", "setting": "CEM-V; 1.89 × 10^-6 Molar, 1.89 µM", "value": 104.6, "unit": "%"}, {"measurement": "Uninfected culture response", "setting": "CEM-V; 1.90 × 10^-7 Molar, 0.19 µM", "value": 105.1, "unit": "%"}, {"measurement": "Uninfected culture response", "setting": "CEM-V; 5.67 × 10^-7 Molar, 0.567 µM", "value": "112.5% and 77.9%"}, {"measurement": "Uninfected culture response", "setting": "CEM-V; 5.68 × 10^-8 Molar, 0.0568 µM", "value": "120.4% and 99.0%"}, {"measurement": "Uninfected culture response", "setting": "CEM-V; 5.98 × 10^-5 Molar, 59.8 µM", "value": 99.2, "unit": "%"}, {"measurement": "Uninfected culture response", "setting": "CEM-V; 5.99 × 10^-6 Molar, 5.99 µM", "value": 111.3, "unit": "%"}, {"measurement": "Uninfected culture response", "setting": "CEM-V; 6.00 × 10^-7 Molar, 0.6 µM", "value": 98.3, "unit": "%"}, {"measurement": "Uninfected culture response", "setting": "CEM-V; 6.01 × 10^-8 Molar, 0.0601 µM", "value": 101.6, "unit": "%"}]}]}
